The subject of one test is EA.hy926 cells. The test can be described thus: Protective effect against H2O2-induced oxidative damage, MTT assay. As to conditions: for EC50: Homo sapiens, EA.hy 926, 4 h, protection against H2O2-induced damage (400 µmol·L^−1, 4 h), n = 3, mean ± SD; for protection rate compared with positive controls (fenofibrate and quereetin): statistical comparison. The test is classed as cell-based, human. The protocol: Hydrogen peroxide (H2O2), a small molecule and functions as oxidative stress and a second messenger which contributes to cell damage or death, could directly induce inflammation in several cell lines. H2O2-induced cell damage is a commonly used model for antioxidant activity evaluation. […] Thus, the concentration of 400 µmol·L^−1 at 4 h was chosen as the model.
Compound SC2 stock solutions were prepared in DMSO. The stock solutions were diluted with FBS free DMEM to different target concentrations (DMSO concentrations ≤ 0.5% v:v). Cells (100 μL, 2 × 10^5 cells∙mL^−1) were seeded on 96-well plates and cultured for 24 h. The medium was then replaced with fresh media containing H2O2 with different concentrations (0, 100, 200, 300, 400, 500, and 600 μmol·L^−1 in FBS free DMEM) and compound SC2 (50, 40, 30, 20, 10 µmol·L^−1), which were transferred to the incubator and cultured for additional time (2, 4, and 6 h). The medium was then replaced with 100 μL of FBS free DMEM and MTT (10 μL, 5 mg·mL^−1 in PBS) and after 4 h the medium was replaced with DMSO (100 μL). A microplate reader (SpectraMaxPlus384, Molecular Devices, United States) was used to record the absorbance at 490 nm for each well of the plates. Cell viability was measured via MTT assay. Survival rate (%) = (Asample group/Acontrol group) × 100%.
Cells (100 μL, 2 × 10^5 cells·mL^−1) were seeded in 96-well plates for 24 h. Cells were treated with different groups and cell viability was measured via MTT assay. The protection rates to oxidative damage were determined and EC50 values were calculated. The protection rates to cells were calculated using the following formula: Protection rate (%) = (Apretreatment group − Amodel group)/(Acontrol group − Amodel group) × 100%.
In general terms: Tetrazolium assays rely on reduction of a dye to a coloured formazan, in cell work by metabolically active cells.

Another test concerns the target T1, COX2 (Homo sapiens, UniProt P35354).
T1 construct: purchased Sino Biological Co. (Beijing, China)
T1 sequence (P35354 18-604): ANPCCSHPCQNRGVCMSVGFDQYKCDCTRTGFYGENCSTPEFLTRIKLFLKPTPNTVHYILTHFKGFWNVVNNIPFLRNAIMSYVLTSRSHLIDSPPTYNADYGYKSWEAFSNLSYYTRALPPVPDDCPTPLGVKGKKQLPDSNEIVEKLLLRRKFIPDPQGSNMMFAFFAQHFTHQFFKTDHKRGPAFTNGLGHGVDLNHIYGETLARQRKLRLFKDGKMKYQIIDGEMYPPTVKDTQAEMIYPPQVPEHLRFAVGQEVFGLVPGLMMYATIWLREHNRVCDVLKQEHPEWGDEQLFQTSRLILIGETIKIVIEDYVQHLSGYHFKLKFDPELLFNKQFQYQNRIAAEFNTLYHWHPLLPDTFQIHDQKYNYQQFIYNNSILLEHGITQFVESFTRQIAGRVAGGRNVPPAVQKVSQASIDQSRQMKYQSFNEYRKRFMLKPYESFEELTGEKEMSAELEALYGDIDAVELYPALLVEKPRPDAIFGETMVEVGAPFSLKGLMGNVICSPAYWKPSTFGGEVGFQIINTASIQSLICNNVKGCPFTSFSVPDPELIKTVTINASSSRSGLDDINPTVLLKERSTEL
The test can be described thus: Fluorescence quenching of COX2 (Stern-Volmer, double logarithm, thermodynamic parameters). Format: binding. As to conditions: for Kq (bimolecular quenching constant): Kq = Ksv/τ0. The text has this: The emitted fluorescence spectra of COX2 solution (6.0 × 10^−8 mol∙L^−1) without and with an increasing concentration of compounds DB2, SC2 or YB2 (7.5 × 10^−6 mol∙L^−1 to 4.5 × 10^−5 mol∙L^−1) at different temperatures are shown in Figure 4a,b, Figure 4c,d or Figure 4e,f, respectively. […] The quenching constant Kq and Stern–Volmer constant Ksv at different temperatures are usually used to identify the quenching mechanisms, static or dynamic. The former is caused by ground-state complex formation, the latter is diffusion. For the static quenching mechanism, the quenching constant decreases with temperature increase. In this part, we calculated the Kq and Ksv values by using a universally accepted Stern–Volmer equation [38]:(1) F0/F=1+Kqτ0[Q]=1+Ksv[Q] where F0 and F are the protein fluorescence intensities in the absence and the presence of quencher (compounds DB2, SC2 or YB2), respectively. Kq = Ksv/ τ0 . τ0 is the fluorescence lifetime of the fluorophore without the quencher ([…]). [Q] is the concentration of quencher. The Stern-Volmer plots of COX2 fluorescence quenching by compounds DB2, SC2 or YB2 are presented in Figure 5a, Figure 5b or Figure 5c, respectively. According to Table 1, the Ksv and Kq values for all three systems (COX2-DB2, COX2-SC2 and COX2-YB2) decreased with increasing temperature. Therefore, we considered that the quenching was static quenching. To further verify that the system was static quenching, dynamic quenching was assumed first.
For the static quenching, we can use the double logarithm equation to obtain the binding constant (KA) and the number of binding sites per protein (n):(2) lgF0−F/F=lgKA+nlg[Q]
There are four main kinds of non-covalent forces between drugs and proteins. These are electrostatic force, hydrogen bonding, hydrophobic force and van der Waals force. The kind of interaction between compounds DB2, SC2 or YB2 and COX2 can be obtained from thermodynamic parameters, including the free energy change (ΔG), enthalpy change (ΔH) and entropy change (ΔS) of the reaction. The three thermodynamic parameters can be obtained according to the published equations [42, 44]:(3) ΔG=−RTlnK (4) lnK2/K1=ΔH(1/T1−1/T2)×1/R (5) ΔG=ΔH−TΔS
The fluorescence intensity of the system was measured with a 1.0 cm quartz cell. COX2 protein was dissolved in PBS for a final concentration of 6.0 × 10^−8 mol∙L^−1. DB2, SC2 or YB2 stock solutions were prepared in singleton at 1.5 × 10^−3 mol∙L^−1 in PBS containing 0.1% DMSO. 2.0 mL COX2 solution was separately titrated by continuing additions of 10 μL compounds DB2, SC2 or YB2 solution). After incubation at 298 K or 310 K, fluorescence quenching spectra were recorded in the region 325-450 nm at a scan rate of 1200 nm∙min^−1. The local environment of Tyr and Trp residues was quite sensitive at 280 nm, so the excitation wavelength was set at this wavelength. Typically, 280 nm is also used to measure the changes in protein tertiary structure. The slit widths of emission and excitation were both fixed at 10 nm. To observe spectra behaviors of Tyr and Trp groups of COX2, the wavelength interval between the excitation and emission wavelengths (Δλ) was set as 15 nm and 60 nm, respectively. Three-dimensional fluorescence spectroscopy was obtained for an excitation range of 200–300 nm and an emission range of 325–400 nm. Appropriate buffer solutions, determined under the same operation conditions, were used as blanks. Each spectrum was recorded three times.

One may read the EC50 as the midpoint of the concentration-response curve. A higher EC50 goes with weaker potency. For the molecule `CC(C)(C)c1ccc(C(=O)c2cc(O)c(O)cc2Cl)cc1` [SC1], in the test with EA.hy926 cells, the EC50 was 1910 ± 521 nM; the “protection rate compared with positive controls (fenofibrate and quereetin)” value was “no significant difference”.
In the test with EA.hy926 cells, `CC(C)Cc1ccc(C(=O)c2cc(O)c(O)cc2Br)cc1` [YB1] returned an EC50 of 8510 ± 957 nM.
On the same count and under the same terms, in the case of `CCCCc1ccc(C(=O)c2cc(O)c(O)cc2Cl)cc1` [DC1] it was 3310 ± 242 nM; in that of `CCCCc1ccc(C(=O)c2cc(O)c(O)cc2Br)cc1` [DB1], 7080 ± 92.6 nM.
As for `CCCCc1ccc(C(=O)c2c(Cl)cc(O)c(O)c2O)cc1` [DC2], in the test on EA.hy926 cells, it took 1550 ± 924 nM to reach a half-maximal effect (EC50); the “protection rate compared with positive controls (fenofibrate and quereetin)” value is listed as “no significant difference”.
In the test on EA.hy926 cells, `O=c1c(O)c(-c2ccc(O)c(O)c2)oc2cc(O)cc(O)c12` [Quereetin, quercetin, reference compound] yielded an EC50 of 7980 ± 1230 nM.
Take `CC(C)Cc1ccc(C(=O)c2c(Cl)cc(O)c(O)c2O)cc1` [YC2]: in the test with EA.hy926 cells, the EC50 was determined as 3850 ± 925 nM; the “protection rate compared with positive controls (fenofibrate and quereetin)” value is on record as “no significant difference”.
The corresponding values for `CC(C)(C)c1ccc(C(=O)c2cc(O)c(O)cc2Br)cc1` [SB1] are 12 ± 4.8 nM and “no significant difference”.
With `CC(C)Cc1ccc(C(=O)c2cc(O)c(O)cc2Cl)cc1` [YC1], the EC50 in the test with EA.hy926 cells was 1910 ± 823 nM.
For “[3-isobutyl-4-methoxy-5 -(pyrrolidine-1-carbonyl)-phenyl]-butyric acid ethyl ester [Control compound, reference compound]”, at COX2 (298 K), the “KA (binding constant)” value was 4436.3 ± 718.24 L/mol, the “Ksv (Stern-Volmer quenching constant)” value is listed as 1.71 ± 0.297 ×10^4 L∙mol^−1, the “n (number of binding sites per protein)” value turned out to be 0.947 ± 0.116 and the “Kq (bimolecular quenching constant)” value is on record as 1.71 ± 0.297 ×10^12 L∙mol^−1∙S^−1. On COX2 (310 K), the “KA (binding constant)” value came to 1417.0 ± 92.261 L/mol, the “Ksv (Stern-Volmer quenching constant)” value is given as 1.05 ± 0.157 ×10^4 L∙mol^−1, the “n (number of binding sites per protein)” value turned out to be 0.785 ± 0.0195 and the “Kq (bimolecular quenching constant)” value is listed as 1.05 ± 0.157 ×10^12 L∙mol^−1∙S^−1.
For the molecule `CC(C)(C)c1ccc(C(=O)c2c(Br)cc(O)c(O)c2O)cc1` [SB2], in the test with EA.hy926 cells, the concentration for a half-maximal effect (EC50) worked out at 25.2 ± 12.2 nM; the “protection rate compared with positive controls (fenofibrate and quereetin)” value is “no significant difference”.
